{
  "source": "patent US10875852B2",
  "about": "“Heteroaromatic compounds as BTK inhibitors” (Boehringer Ingelheim International GmbH, priority 2012, dated 2020)",
  "target": "full-length human His-tagged BTK (Homo sapiens (Human), UniProt Q06187)",
  "sequence (Q06187 whole entry)": "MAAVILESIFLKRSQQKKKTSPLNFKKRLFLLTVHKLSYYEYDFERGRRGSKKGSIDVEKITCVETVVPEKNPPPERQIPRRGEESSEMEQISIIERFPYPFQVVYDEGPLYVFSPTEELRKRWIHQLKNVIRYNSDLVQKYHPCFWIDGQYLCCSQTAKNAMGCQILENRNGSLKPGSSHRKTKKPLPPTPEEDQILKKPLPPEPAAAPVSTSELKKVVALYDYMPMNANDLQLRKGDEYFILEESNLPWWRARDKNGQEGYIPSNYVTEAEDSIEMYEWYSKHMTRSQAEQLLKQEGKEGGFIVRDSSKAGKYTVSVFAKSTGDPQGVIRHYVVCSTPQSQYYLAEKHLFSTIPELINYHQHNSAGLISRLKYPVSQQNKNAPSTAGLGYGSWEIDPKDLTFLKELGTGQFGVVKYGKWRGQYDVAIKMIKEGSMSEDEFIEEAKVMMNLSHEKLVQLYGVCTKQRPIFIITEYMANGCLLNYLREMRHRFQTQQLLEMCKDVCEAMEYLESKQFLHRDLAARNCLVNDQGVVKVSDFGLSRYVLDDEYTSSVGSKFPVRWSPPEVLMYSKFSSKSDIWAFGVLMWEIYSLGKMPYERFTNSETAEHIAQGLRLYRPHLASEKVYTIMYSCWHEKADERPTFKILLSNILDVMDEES",
  "assay": "BTK HTRF assay (Cisbio KinEASE-TK)",
  "format": "biochemical",
  "settings": "6 nM BTK, 30 uM ATP, 15 min preincubation",
  "description": "An HTRF assay (Cisbio KinEASE-TK cat #62TK0PEC) was performed to quantitate the ability of test compounds to inhibit BTK mediated phosphorylation of substrate. Assays were assembled in 384 well plates where 6 nM of full-length human His-tagged BTK (Life Technologies cat # PV3587) and test compound at varying concentrations were preincubated for 15 minutes at 28° C. Then, 1 uM of TK substrate-biotin and 30 uM ATP were added and incubated for an additional 30 minutes at 28° C.",
  "data": [
    {"smiles": "C=CC(=O)N1CC[C@]2(C1)C[C@H](n1nc(-c3ccc(OC)cc3Cl)c(C(N)=O)c1N)C2", "note": "[Example 159]", "values": [
      {"measurement": "IC50", "result": 20, "unit": "nM"}
    ]}
  ]
}
